Assays:
human Gal-3 (hGal-3) = human Gal-3 (hGal-3) (Homo sapiens (Human), UniProt P17931); assay: Competitive binding assay: biotinylated hGal-3 binding to microplate-adsorbed asialofetuin (ASF); conditions: Activity on hGal-3; binding of biotinylated hGal-3 to ASF-coated plates; mean values
In short: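 Serially diluted compounds competed with biotinylated human Gal-3 for binding to plate-adsorbed asialofetuin over 3 h at 4 °C. Bound Gal-3 was detected with streptavidin-peroxidase (80 ng/mL, 1 h, 4 °C) and ABTS substrate. IC50 values are means of several measurements.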

human Gal-1 (hGal-1) = assay: Competitive binding assay: biotinylated hGal-1 binding to microplate-adsorbed asialofetuin (ASF); conditions: Activity on hGal-1; binding of biotinylated hGal-1 to ASF-coated plates; mean values
human Gal-1 (hGal-1), sequence (P09382 2-135 limits assumed): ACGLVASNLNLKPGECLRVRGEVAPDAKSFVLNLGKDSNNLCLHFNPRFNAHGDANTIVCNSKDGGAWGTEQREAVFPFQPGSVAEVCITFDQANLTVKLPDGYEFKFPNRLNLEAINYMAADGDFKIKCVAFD
In short: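 Biotinylated hGal-1 (300–1000 ng/mL; optionally a cysteine-free all-serine variant) incubated 3 h at 4 °C with compound on asialofetuin-coated plates, then streptavidin-peroxidase 1 h at 4 °C. ABTS readout at OD 410 nm after 30–45 min; IC50 given as mean of several runs.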

human Gal-3 (hGal-3), sequence (P17931 whole entry): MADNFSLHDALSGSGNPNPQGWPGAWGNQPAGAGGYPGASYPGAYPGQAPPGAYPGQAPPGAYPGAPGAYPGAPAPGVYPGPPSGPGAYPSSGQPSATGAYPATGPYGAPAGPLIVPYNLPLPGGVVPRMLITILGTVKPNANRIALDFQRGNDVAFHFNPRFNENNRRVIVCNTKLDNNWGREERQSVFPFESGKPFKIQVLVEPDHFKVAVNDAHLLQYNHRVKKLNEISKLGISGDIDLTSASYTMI

| IC50 (human Gal-3 (hGal-3)) | IC50 (human Gal-1 (hGal-1)) | SMILES |
| --- | --- | --- |
| 0.024 µM | 1.57 µM | COc1cc(C#N)cc(N(C(=O)[C@@H]2O[C@H](CO)[C@H](O)[C@H](n3cc(-c4cc(F)c(F)c(F)c4)nn3)[C@H]2OC)[C@H]2CCCC[C@@H]2O)c1 [Example 108, (2R,3R,4S,5R,6R)-N-(3-cyano-5-methoxyphenyl)-5-hydroxy-N-((1S,2S)-2-hydroxycyclohexyl)-6-(hydroxymethyl)-3-methoxy-4-(4-(3,4,5-trifluorophenyl)-1H-1,2,3-triazol-1-yl)tetrahydro-2H-pyran-2-carboxamide] |
| 0.024 µM | 0.318 µM | CO[C@@H]1[C@@H](n2cc(-c3cc(F)cc(Cl)c3)nn2)[C@@H](O)[C@@H](CO)O[C@H]1C(=O)N(c1cc(Br)cc(C#N)c1)[C@H]1CCCC[C@@H]1O [Example 137, (2R,3R,4S,5R,6R)-N-(3-bromo-5-cyanophenyl)-4-(4-(3-chloro-5-fluorophenyl)-1H-1,2,3-triazol-1-yl)-5-hydroxy-N-((1S,2S)-2-hydroxycyclohexyl)-6-(hydroxymethyl)-3-methoxytetrahydro-2H-pyran-2-carboxamide] |
| 0.224 µM | 2.96 µM | COc1ccccc1CN(C(=O)[C@@H]1O[C@H](CO)[C@H](O)[C@H](n2cc(-c3cc(F)c(F)c(F)c3)nn2)[C@H]1OC)[C@H]1CCCC[C@@H]1O [Example 39, (2R,3R,4S,5R,6R)-5-hydroxy-N-((1S,2S)-2-hydroxycyclohexyl)-6-(hydroxymethyl)-3-methoxy-N-(2-methoxybenzyl)-4-(4-(3,4,5-trifluorophenyl)-1H-1,2,3-triazol-1-yl)tetrahydro-2H-pyran-2-carboxamide] |
| 0.169 µM | 2.49 µM | O=C([C@@H]1O[C@H](CO)[C@H](O)[C@H](n2cc(-c3cc(F)c(F)c(F)c3)nn2)[C@H]1O)N(Cc1ccncc1Cl)[C@H]1CCCC[C@@H]1O [Example 8, (2R,3R,4S,5R,6R)-N-((3-chloropyridin-4-yl)methyl)-3,5-dihydroxy-N-((1S,2S)-2-hydroxycyclohexyl)-6-(hydroxymethyl)-4-(4-(3,4,5-trifluorophenyl)-1H-1,2,3-triazol-1-yl)tetrahydro-2H-pyran-2-carboxamide] |
| 0.02 µM | 2.66 µM | CO[C@@H]1[C@@H](n2cc(-c3cc(F)c(F)c(F)c3)nn2)[C@@H](O)[C@@H](CO)O[C@H]1C(=O)N(Cc1cccc(Cl)c1)[C@H]1CCCC[C@@H]1O [Example 54] |
| 0.044 µM | 1.17 µM | CC(=O)O[C@@H]1[C@@H](n2cc(-c3cc(F)c(Cl)c(F)c3)nn2)[C@@H](O)[C@@H](CO)O[C@H]1C(=O)N(Cc1ccccc1C(F)(F)F)[C@H]1CCCC[C@@H]1O [Example 68, (2R,3R,4S,5R,6R)-4-(4-(4-chloro-3,5-difluorophenyl)-1H-1,2,3-triazol-1-yl)-5-hydroxy-2-(((1S,2S)-2-hydroxycyclohexyl)(2-(trifluoromethyl)benzyl)carbamoyl)-6-(hydroxymethyl)tetrahydro-2H-pyran-3-yl acetate] |
| 0.022 µM | 1.34 µM | CO[C@@H]1[C@@H](n2cc(-c3cc(F)c(Cl)c(Cl)c3)nn2)[C@@H](O)[C@@H](CO)O[C@H]1C(=O)N(c1cc(Cl)cc(Cl)c1)[C@H]1CCCC[C@@H]1O [Example 166, (2R,3R,4S,5R,6R)-4-(4-(3,4-dichloro-5-fluorophenyl)-1H-1,2,3-triazol-1-yl)-N-(3,5-dichlorophenyl)-5-hydroxy-N-((1S,2S)-2-hydroxycyclohexyl)-6-(hydroxymethyl)-3-methoxytetrahydro-2H-pyran-2-carboxamide] |
| 0.013 µM | 0.386 µM | CO[C@@H]1[C@@H](n2cc(-c3ccc(Br)c(F)c3F)nn2)[C@@H](O)[C@@H](CO)O[C@H]1C(=O)N(c1cc(Cl)cc(C#N)c1)[C@H]1CCCC[C@@H]1O [Example 175, (2R,3R,4S,5R,6R)-4-(4-(4-bromo-2,3-difluorophenyl)-1H-1,2,3-triazol-1-yl)-N-(3-chloro-5-cyanophenyl)-5-hydroxy-N-((1S,2S)-2-hydroxycyclohexyl)-6-(hydroxymethyl)-3-methoxytetrahydro-2H-pyran-2-carboxamide] |
| 0.012 µM | 0.238 µM | CO[C@@H]1[C@@H](n2cc(-c3ccc(C)c(F)c3F)nn2)[C@@H](O)[C@@H](CO)O[C@H]1C(=O)N(c1cc(Cl)cc(C#N)c1)[C@H]1CCCC[C@@H]1O [Example 171, (2R,3R,4S,5R,6R)-N-(3-chloro-5-cyanophenyl)-4-(4-(2,3-difluoro-4-methylphenyl)-1H-1,2,3-triazol-1-yl)-5-hydroxy-N-((1S,2S)-2-hydroxycyclohexyl)-6-(hydroxymethyl)-3-methoxytetrahydro-2H-pyran-2-carboxamide] |
| 0.167 µM | 86.6 µM | O=C([C@@H]1O[C@H](CO)[C@H](O)[C@H](n2cc(-c3cc(F)c(F)c(F)c3)nn2)[C@H]1O)N(Cc1ccc(Cl)s1)[C@H]1CCCC[C@@H]1O [Example 22, (2R,3R,4S,5R,6R)-N-((5-chlorothiophen-2-yl)methyl)-3,5-dihydroxy-N-((1S,2S)-2-hydroxycyclohexyl)-6-(hydroxymethyl)-4-(4-(3,4,5-trifluorophenyl)-1H-1,2,3-triazol-1-yl)tetrahydro-2H-pyran-2-carboxamide] |
| 0.147 µM | 1.54 µM | CO[C@@H]1[C@@H](n2cc(-c3cc(F)c(F)c(F)c3)nn2)[C@@H](O)[C@@H](CO)O[C@H]1C(=O)N(c1ccc(C(F)(F)F)c(Cl)c1)[C@H]1CCCC[C@@H]1O [Example 91, (2R,3R,4S,5R,6R)-N-(3-chloro-4-(trifluoromethyl)phenyl)-5-hydroxy-N-((1S,2S)-2-hydroxycyclohexyl)-6-(hydroxymethyl)-3-methoxy-4-(4-(3,4,5-trifluorophenyl)-1H-1,2,3-triazol-1-yl)tetrahydro-2H-pyran-2-carboxamide] |
| 0.031 µM | 0.828 µM | CC(=O)O[C@@H]1[C@@H](n2cc(-c3cc(F)c(F)c(F)c3)nn2)[C@@H](O)[C@@H](CO)O[C@H]1C(=O)N(Cc1ccccc1C(F)(F)F)[C@H]1CCCC[C@@H]1O [Example 55, (2R,3R,4S,5R,6R)-5-hydroxy-2-(((1S,2S)-2-hydroxycyclohexyl)(2-(trifluoromethyl)benzyl)carbamoyl)-6-(hydroxymethyl)-4-(4-(3,4,5-trifluorophenyl)-1H-1,2,3-triazol-1-yl)tetrahydro-2H-pyran-3-yl acetate] |
| 0.01 µM | 0.591 µM | CO[C@@H]1[C@@H](n2cc(-c3ccc(Cl)c(F)c3)nn2)[C@@H](O)[C@@H](CO)O[C@H]1C(=O)N(c1cc(Cl)cc(Cl)c1)[C@H]1CCCC[C@@H]1O [Example 179, (2R,3R,4S,5R,6R)-4-(4-(4-chloro-3-fluorophenyl)-1H-1,2,3-triazol-1-yl)-N-(3,5-dichlorophenyl)-5-hydroxy-N-((1S,2S)-2-hydroxycyclohexyl)-6-(hydroxymethyl)-3-methoxytetrahydro-2H-pyran-2-carboxamide] |
| 0.344 µM | 2.24 µM | CO[C@@H]1[C@@H](n2cc(-c3cc(F)c(F)c(F)c3)nn2)[C@@H](O)[C@@H](CO)O[C@H]1C(=O)N(Cc1cc2ccccc2n1C)[C@H]1CCCC[C@@H]1O [Example 48, (2R,3R,4S,5R,6R)-5-hydroxy-N-((1S,2S)-2-hydroxycyclohexyl)-6-(hydroxymethyl)-3-methoxy-N-((1-methyl-1H-indol-2-yl)methyl)-4-(4-(3,4,5-trifluorophenyl)-1H-1,2,3-triazol-1-yl)tetrahydro-2H-pyran-2-carboxamide] |
